Assay results taken from US9056899B2 (priority 2008, dated 2015).
Values after ≈ are worked out from the molar mass of the structure shown.

How the values were obtained:
[1] = system: E. coli EMG2; assay: Antibiotic resistance assay; format: cell-based; details: 30 ng/mL ofloxacin 24 hours; phage (10^9 PFU/mL) added for the last 12 hours where named
Description: Antibiotic resistance assay. To analyze the effect of subinhibitory concentrations of ofloxacin on the development of antibiotic-resistant mutants, the inventors grew 1:10^8 dilutions of overnight EMG2 in LB media containing either no ofloxacin (FIG. 4) or 30 ng/mL ofloxacin (FIG. 7). After 12 hours of growth at 37° C. and 300 rpm, the inventors split the cells grown in no ofloxacin into 100 uL aliquots with no ofloxacin in 60 wells in 96-well plate format (Costar 3370; Fisher Scientific, Pittsburgh, Pa.). The inventors also split the cells grown in 30 ng/mL ofloxacin into 100 uL aliquots in 60 wells with either no phage and 30 ng/mL ofloxacin (FIG. 7B), φunmod phage and 30 ng/mL ofloxacin (FIG. 7C), and φlexA3 and 30 ng/mL ofloxacin (FIG. 7D) in 96-well plate format. The inventors placed the 96-well plates in 37° C. and 300 rpm with plastic bags to minimize evaporation. After 12 hours of treatment, the inventors plated cultures from each well on LB agar+100 ng/mL ofloxacin to select for mutants that developed resistance against ofloxacin. To compare results, the inventors plotted histograms of the number of resistant bacteria found in each well in FIGS. 4 and 8.

[2] = system: E. coli EMG2; assay: Ofloxacin killing assay; format: cell-based; details: 60 ng/mL ofloxacin, no phage, 6 hours of treatment
Description: Determination of colony forming units. To obtain CFU counts, 150 μL of relevant cultures were collected, washed with 1× phosphate-buffered saline (PBS), recollected, and resuspended in 150 μL of 1×PBS. Serial dilutions were performed with 1×PBS and sampled on LB agar plates. LB agar plates were incubated at 37° C. overnight before counting.
Ofloxacin killing assay. To determine the adjuvant effect of engineered phage (FIG. 1B, FIG. 3A and FIG. 3D), the inventors grew 1:500 dilutions of overnight EMG2 cells for 3 hours and 30 minutes at 37° C. and 300 rpm to late-exponential phase and determined initial CFUs. Then, the inventors added 60 ng/mL ofloxacin by itself or in combination with 10^8 PFU/mL bacteriophage (unmodified φunmod or engineered φLexA, φSoxR, φcsr, φompF, or φCsr-ompF phage) and treated at 37° C. and 300 rpm. At indicated time points, the inventors determined CFUs as described above. Mean killing (Δlog10 (CFU/mL)) was determined by subtracting mean initial log10 (CFU/mL) from mean log10 (CFU/mL) after treatment in order to compare data from different experiments. This protocol was replicated with E. coli RFS289 to determine the ofloxacin-enhancing effect of engineered φlexA3 phage against antibiotic-resistant bacteria (FIG. 2). […]

[3] = system: E. coli EMG2; assay: Survival of mice infected with bacteria; format: in vivo; details: 8.8×10^7 CFU/mouse i.p.; 1 hour later i.v. 0.2 mg/kg ofloxacin with or without 10^9 PFU/mouse phage; observed 5 days
Description: After 1 hour, the mice received either no treatment or intravenous treatment with no phage, unmodified phage φunmod, or engineered phage φlexA3 with 0.2 mg/kg ofloxacin. 10^9 PFU/mouse phage was used.
Increasing Survival of Mice Infected with Bacteria. To determine the clinical relevance of antibiotic-enhancing phage in vivo, the inventors applied the engineered phage φlexA3 with ofloxacin to prevent death in mice infected with bacteria. Mice were injected with E. coli EMG2 intraperitoneally 1 hour prior to receiving different intravenous treatments (FIG. 3A). Eighty percent of mice that received φlexA3 with ofloxacin survived, compared with 50% and 20% for mice that received φunmod plus ofloxacin or ofloxacin alone, respectively (FIG. 3B).

[4] = system: E. coli EMG2; assay: Minimum inhibitory concentration of ofloxacin; format: cell-based; details: Escherichia coli, data not shown

CC1COc2c(N3CCN(C)CC3)c(F)cc3c(=O)c(C(=O)O)cn1c23 (stereo not shown) [ofloxacin]
number of mutants resistant to 100 ng/mL ofloxacin (median of 60 samples) [1]: 1592 | reduction of bacteria exposed only to ofloxacin [2]: about 1.7 log10 (CFU/mL) | mice that survived [3]: 20% | MIC [4]: 0.06 µg/mL (≈ 0.166 µM)
